Laboratory results reported in patent US20080004282A1, “Compositions and methods for modulating gated ion channels” (PainCeptor Pharma Corporation, priority 2006, published 2008).
Like-named read-outs stand apart in the source and are kept apart here.

Columns and labels:
ASIC1a [1] = target: T1, ASIC1a (Homo sapiens, UniProt P78348); assay: Two-electrode voltage clamp of acid-induced currents in Xenopus laevis oocytes; assay type: cell-based; design: expressed in transfected cells; host or cells: Xenopus laevis oocytes, nuclear microinjection of an expression vector such as pCDNA3; settings: 50 μM, Xenopus oocytes; read-out: % inh. at 50 μM (Xo)
T1 sequence (P78348 1-528): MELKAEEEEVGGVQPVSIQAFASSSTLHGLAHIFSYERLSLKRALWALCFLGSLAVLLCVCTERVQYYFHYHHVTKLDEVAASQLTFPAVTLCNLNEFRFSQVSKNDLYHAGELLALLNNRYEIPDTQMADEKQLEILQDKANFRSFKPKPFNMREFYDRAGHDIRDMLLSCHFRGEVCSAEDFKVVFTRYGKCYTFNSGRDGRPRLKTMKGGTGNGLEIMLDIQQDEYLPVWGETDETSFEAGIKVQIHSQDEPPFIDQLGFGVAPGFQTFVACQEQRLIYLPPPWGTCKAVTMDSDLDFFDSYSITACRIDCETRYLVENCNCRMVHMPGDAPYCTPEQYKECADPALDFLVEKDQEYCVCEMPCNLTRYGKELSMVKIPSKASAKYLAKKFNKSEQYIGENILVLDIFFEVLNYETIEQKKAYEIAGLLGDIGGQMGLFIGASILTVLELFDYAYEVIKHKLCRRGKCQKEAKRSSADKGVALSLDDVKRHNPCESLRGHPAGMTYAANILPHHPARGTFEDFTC
Description: Screening and Bioanalysis of ASIC Antagonists in Xenopus laevis oocytes
This example describes the in vitro assessment of the activity of the compounds of the present invention.
Two-electrode voltage clamp electrophysiological assays in Xenopus laevis oocytes expressing gated ion channels are performed as follows:
Oocytes are surgically removed from adult Xenopus laevis and treated for 2 h at room temperature with 1 mg/ml type I collagenase (Sigma) in Barth's solution under mild agitation. Selected oocytes at stage IV-V are defolliculated manually before nuclear microinjection of 2.5-5 ng of a suitable expression vector, such as pCDNA3, comprising the nucleotide sequence encoding a gated ion channel subunit protein. In such an experiment, the oocytes express homomultimeric proton-gated ion channels on their surface. In an alternate experiment, one, two, three or more vectors comprising the coding sequences for distinct gated ion channel subunits are co-injected in the oocyte nuclei. In the latter case, oocytes express heteromultimeric proton-gated ion channels. For example, ASIC2a and/or ASIC3 subunits in pcDNA3 vector are co-injected at a 1:1 cDNA ratio. After 2-4 days of expression at 19° C. in Barth's solution containing […] gentamicin and 1.8 mM CaCl2, gated ion channels are activated by applying an acidic solution (pH<7) and currents are recorded in a two electrode voltage-clamp configuration, using an OC-725B amplifier (Warner Instruments). Currents are acquired and digitized at 500 Hz on an Apple Imac G3 computer with an A/D NB-MIO-16XL interface (National Instruments) and recorded traces are post-filtered at 100 Hz in Axograph (Axon Instruments) (Neher, E. and Sakmann, B. (1976) Nature 260:799-802). Once impaled with the microelectrodes, oocytes are continuously superfused at 10-12 ml/min with a modified Ringer's solution containing 97 mM NaCl, 2 mM KCl, 1.8 mM CaCl2, and 10 mM HEPES brought to pH 7.4 with NaOH (Control Ringer). Test Ringer solution is prepared by replacing HEPES with MES and adjusting the pH to the desired acidic value. Compounds of the present invention are prepared in both the Control and Test Ringer solutions and applied to oocytes at room temperature through a computer-controlled switching valve system. Osmolarity of all solutions is adjusted to 235 mOsm with choline chloride. Similarly, recordings can also be acquired in an automated multichannel oocytes system as the OpusExpress™ (Molecular Devices, Sunnyvale, USA).
FIGS. 1A and 2A illustrate the inhibitory effects of Compounds 12 and 44 on acid-induced activation of recombinant homomeric hASIC1a channels. FIGS. 1A and 2A show the dose-dependent inhibition of the acid-induced hASIC1a currents recorded from Xenopus laevis oocytes using the two-electrode voltage clamp method (as described in this example) in the absence or presence of increasing concentration of the compounds.

ASIC1a [2] = target: T1, ASIC1a; assay: Calcium-imaging (FLIPR) of MES-induced calcium response in ASIC1a expressing HEK293 cells; assay type: cell-based; design: host or cells: HEK293
Description: Identification of ASIC Antagonists Using Calcium-Imaging
ASIC1a expressing HEK293 cells are grown in culture medium (DMEM with 10% FBS), in polystyrene culture flasks (175 mm 2) at 37° C. in a humidified atmosphere of 5% CO2. Confluency of cells should be 80-90% on day of plating. Cells are rinsed with 10 ml of PBS and cells are re-suspended by addition of culture medium and trituration with a 25 ml pipette.
The cells are seeded at a density of approximately 1×10^6 cells/ml (100 μl/well) in black-walled, clear bottom, 96-well plates pre-treated with 10 mg/l poly-D-lysin (75 μl/well for ≧30 min). Plated cells are allowed to proliferate for 24 h before loading with dye.
Loading with Fluorescent Calcium Dye Fluo-4/AM
Fluo-4/AM (1 mg, Molecular Probes) is dissolved in 912 μl DMSO. The Fluo-4/AM stock solution (1 mM) is diluted with culture medium to a final concentration of 2 μM (loading solution).
The culture medium is aspirated from the wells, and 50 μl of the Fluo-4/AM loading solution is added to each well. The cells are incubated at 37° C. for 30 min.
After the loading period, the loading solution is aspirated and the cells are washed twice with 100 μl modified Assay Buffer (145 mM NaCl, 5 mM KCl, 5 mM CaCl2, 1 mM MgCl2, 10 mM HEPES, pH 7.4) to remove extracellular dye. Following the second wash, 100 μl modified Assay Buffer is added to each well and the fluorescence is measured in FLIPR™ or FlexStation™ (Molecular Devices, USA), or any other suitable equipment known to the skilled in the art.
Temperature: Room temperature (20-22° C.)
First addition: 50 μl test solution at a rate of 30 μl/sec and a starting height of […]
Second addition: 50 μl MES solution (20 mM, 5 mM final concentration) at a rate of 35 μl/sec and a starting height of 150 μl.
Reading intervals: pre-incubation—10 sec×7 and 3 sec×3 antagonist phase—3 sec×17 and 10 sec×12
Addition plates (compound test plate and MES plate) are placed on the right and left positions in the FLIPR tray, respectively. Cell plates are placed in the middle position and the ASIC1a program is effectuated. FLIPR will then take the appropriate measurements in accordance with the interval settings above. Fluorescence obtained after stimulation is corrected for the mean basal fluorescence (in modified Assay Buffer).
Hit Confirmation and Characterization of Active Substances
The MES-induced peak calcium response, in the presence of test substance, is expressed relatively to the MES response alone. Test substances that block the MES-induced calcium response are re-tested in triplicates. […]

[3] = MES-induced calcium response, ASIC1a expressing HEK293 cells, read-out: IC50 (FLIPR)

For `CCN1CCc2c(-c3cc(C)cc(C)c3)cc(C#N)c(N)c2C1` [Compound 48], the inhibition at 50 µM (ASIC1a [1]) was over 50% and the IC50 (ASIC1a [2]) was under 10 µM.
For `CCN1CCc2c(-c3ccccc3OC)cc(C#N)c(N)c2C1` [Compound 45], the inhibition at 50 µM (ASIC1a [1]) was over 50% and the IC50 (ASIC1a [2]; [3]) was 10 to 20 µM.
`CCN1CCc2c(-c3ccccc3)cc(C#N)c(N(C)C)c2C1` [Compound 50] gave an inhibition at 50 µM (ASIC1a [1]) of over 50% and an IC50 (ASIC1a [2]; [3]) of 10 to 20 µM.
